The test has as its target T1, human histamine H4 receptor (Homo sapiens, UniProt Q9H3N8).
T1 construct: expressed in transfected cells; host or cells: SK-N-MC cells or COS7 cells, transiently transfected with pH4R; membrane preparation
The test is described as follows: Binding Assay on Recombinant Human Histamine H4 Receptor. The conditions noted are these: competition binding with 3H-histamine, membranes of SK-N-MC or COS7 cells transfected with human H4R; average of results obtained. As to the method: Biological Methods: Binding Assay on Recombinant Human Histamine H4 Receptor.
SK-N-MC cells or COS7 cells were transiently transfected with pH4R and grown in 150 cm^2 tissue culture dishes. Cells were washed with saline solution, scraped with a cell scraper and collected by centrifugation (1000 rpm, 5 min). Cell membranes were prepared by homogenization of the cell pellet in 20 mM Tris-HCl with a polytron tissue homogenizer for 10 sec at high speed. Homogenate was centrifuged at 1000 rpm for 5 min at 4° C. The supernatant was then collected and centrifuged at 20,000×g for 25 min at 4° C. The final pellet was resuspended in 50 mM Tris-HCl. Cell membranes were incubated with ^3H-histamine (5-70 nM) in the presence or absence of excess histamine (10,000 nM). Incubation occurred at room temperature for 45 min. Membranes were harvested by rapid filtration over Whatman GF/C filters and washed 4 times with ice-cold 50 mM Tris HCl. Filters were then dried, mixed with scintillant and counted for radioactivity. SK-N-MC or COS7 cells expressing human histamine H4 receptor were used to measure the affinity of binding of other compounds and their ability to displace ^3H-ligand binding by incubating the above-described reaction in the presence of various concentrations of inhibitor or compound to be tested. For competition binding studies using ^3H-histamine, K values were calculated, based on an experimentally determined KD value of 5 nM and a ligand concentration of 5 nM, according to Y.-C.

The record followed here is patent US8440654B2, “Thieno- and furo-pyrimidine modulators of the histamine H4 receptor” (Janssen Pharmaceutica NV, priority 2007, dated 2013).

pKi: −log10 of the molar value. Counter-ions that a name gives are not always drawn.

T1 sequence (Q9H3N8 whole entry): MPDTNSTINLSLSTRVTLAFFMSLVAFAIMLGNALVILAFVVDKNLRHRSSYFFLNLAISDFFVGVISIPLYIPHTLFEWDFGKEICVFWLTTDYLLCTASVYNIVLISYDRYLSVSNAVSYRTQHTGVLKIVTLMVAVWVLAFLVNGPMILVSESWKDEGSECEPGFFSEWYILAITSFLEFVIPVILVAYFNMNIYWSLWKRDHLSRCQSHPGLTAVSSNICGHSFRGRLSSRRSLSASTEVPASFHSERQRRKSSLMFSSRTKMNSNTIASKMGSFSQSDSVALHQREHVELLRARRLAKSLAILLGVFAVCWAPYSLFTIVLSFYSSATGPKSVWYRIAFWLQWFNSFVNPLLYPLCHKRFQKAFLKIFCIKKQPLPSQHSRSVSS

For `CNC1CCN(c2nc(N)nc3c4c(sc23)CCCCC4)C1` (stereo in doubt) [Example 47, trifluoroacetic acid salt], the pKi is 8.30.
As to `Nc1nc(N2CC3CCC(C2)N3)c2oc3c(c2n1)CCCC3` [Example 26, 4-(3,8-Diazabi-cyclo[3.2.1]oct-3-yl)-6,7,8,9-tetrahydro[1]benzofuro[3,2-d]pyrimidin-2-amine], the pKi was 7.49.
Turning to `Nc1nc(N2CCNCC2)c2oc3c(c2n1)CCCC3` [Example 6, 4-piperazin-1-yl-6,7,8,9-tetrahydro-benzo[4,5]furo[3,2-d]pyrimidin-2-ylamine], the pKi was 8.30.
`CN[C@H]1CCN(c2nc(N)nc3c4c(sc23)CCC(F)(F)C4)C1` [Example 112, 8,8-Difluoro-4-[(3S)-3-(methylamino)pyrrolidin-1-yl]-6,7,8,9-tetrahydro[1]benzothieno[3,2-d]pyrimidin-2-amine trifluoroacetate]: the pKi was 8.22.
The figure for `CN1CCN(c2nc(N)nc3c4c(oc23)CCCC4)CC1` [Example 5, 4-(4-Methyl-piperazin-1-yl)-6,7,8,9-tetrahydro-benzo[4,5]furo[3,2-d]pyrimidin-2-ylamine] is 8.10; for `Nc1nc(N2C[C@H]3CCCN[C@H]3C2)c2oc3c(c2n1)CCCC3` [Example 20, 4-[(4aR,7aR)-Octahydro-6H-pyrrolo[3,4-b]pyridin-6-yl]-6,7,8,9-tetra-hydro[1]benzofuro[3,2-d]pyrimidin-2-amine trifluoroacetic acid salt] it is 8.30.
Consider `Nc1nc(N2CC[C@H](N)C2)c2oc3c(c2n1)CC(F)(F)CC3` [Example 126, 4-[(3S)-3-Aminopyrrolidin-1-yl]-8,8-difluoro-6,7,8,9-tetrahydro[1]benzofuro[3,2-d]pyrimidin-2-amine hydrochloride], for which the pKi was 8.21.
The figure for `CN(C)[C@@H]1CCN(c2nc(N)nc3c4c(sc23)CCCC4)C1` [Example 39, 4-[(3R)-3-(Dimethyl-amino)pyrrolidin-1-yl]-6,7,8,9-tetrahydro[1]benzo-thieno[3,2-d]pyrimidin-2-amine trifluoroacetic acid salt] is 7.21.
Under `CC1(C)CCc2sc3c(N4CC[C@@H](N)C4)nc(N)nc3c2C1` [Example 136, 4-[(3R)-3-Aminopyrrolidin-1-yl]-8,8-dimethyl-6,7,8,9-tetrahydro[1]benzothieno[3,2-d]pyrimidin-2-amine hydrochloride] stands 8.11.
For the compound `CC1CCc2sc3c(N4CCN(C)CC4)nc(N)nc3c2C1` (stereo not drawn) [Example 43, 8-Methyl-4-(4-methyl-piperazin-1-yl)-6,7,8,9-tetrahydro[1]benzo-thieno[3,2-d]pyrimidin-2-amine trifluoroacetic acid salt], the pKi is 8.15.
With `Nc1nc(N2CC(N)C2)c2oc3c(c2n1)CCCC3` [Example 23, 4-(3-Aminoazetidin-1-yl)-6,7,8,9-tetrahydro[1]benzo-furo[3,s-d]pyrimidin-2-amine trifluoroacetic acid salt], the pKi is 7.08.
The figure for `CN[C@@H]1CCN(c2nc(N)nc3c4c(sc23)CCC(F)(F)C4)C1` [Example 59, 8,8-Difluoro-4-[(3R)-3-(methylamino)pyrrolidin-1-yl]-6,7,8,9-tetrahydro[1]benzothieno[3,2-d]pyrimidin-2-amine trifluoroacetic acid salt] is 8.05; for `CN1CCN(c2ncnc3c4c(oc23)CCCC4)CC1` [Example 8, 4-(4-Methyl-piperazin-1-yl)-6,7,8,9-tetrahydro-benzo[4,5]furo[3,2-d]pyrimidine] it is 7.28; for `CN1CCN(c2nc(N)nc3cc(C(C)(C)C)sc23)CC1` [Example 15, 6-tert-Butyl-4-(4-methyl-piperazin-1-yl)thieno[3,2-d]pyrimidin-2-amine trifluoroacetic acid salt] it is 6.54.
With `Nc1nc(N2CCC(N)C2)c2sc3c(c2n1)CCCC3` (stereo in doubt) [Example 56, 4-[(3R)-3-Aminopyrrolidin-1-yl]-6,7,8,9-tetrahy-dro[1]benzothieno[3,2-d]pyrimidin-2-amine trifluoracetic acid salt], the pKi is 8.00.
For `CN1CCN(c2nc(N)nc3ccsc23)CC1` [Example 1, 4-(4-Methyl-piperazin-1-yl)-thieno[3,2-d]pyrimidin-2-ylamine], the pKi was 6.30.
Regarding `CCN1CCN(c2nc(N)nc3c4c(sc23)CCCC4)CC1` [Example 51, 4-(4-Ethylpiperazin-1-yl)-6,7,8,9-tetrahydro[1]benzo-thieno[3,2-d]pyrimidin-2-amine trifluoroacetic acid salt], the pKi is 6.69.
For the compound `Nc1nc(N2C[C@H]3CCN[C@H]3C2)c2sc3c(c2n1)CCCC3` [Example 4, 4-[(3aR,6aR)-Hexahydropyrrolo[3,4-b]pyrrol-5(1H)-yl]-6,7,8,9-tetrahydro[1]benzothieno[3,2-d]pyrimidin-2-amine], the pKi is 7.68.
As to `CN[C@H]1CCN(c2nc(N)nc3c4c(oc23)CCC(F)(F)C4)C1` [Example 122, 8,8-Difluoro-4-[(3S)-3-(methylamino)pyrrolidin-1-yl]-6,7,8,9-tetrahydro[1]benzofuro[3,2-d]pyrimidin-2-amine trifluoroacetate], the pKi was 8.15.
Turning to `Cc1csc2c(N3CCN(C)CC3)nc(N)nc12` [Example 13, 7-Methyl-4-(4-methyl-piperazin-1-yl)thieno-amine trifluoroacetic acid salt], the pKi is 6.24.
Regarding `CC(C)(C)c1cc2nc(N)nc(N3CCNCC3)c2s1` [Example 17, 6-tert-Butyl-4-piperazin-1-ylthieno[3,2-d]pyrimidin-2-amine trifluoroacetic acid salt], the pKi was 6.85.
In the case of “(3R)-N-Methyl-1-(6,7,8,9- tetrahydro[1]benzo- thieno[3,2-d]pyrimidin-4- yl)pyrrolidin-3-amine [Example 30]”, the pKi was 6.84.
Under `Nc1nc(N2CCNCC2)c2oc3c(c2n1)CC(F)(F)CC3` [Example 118, 8,8-Difluoro-4-piperazin-1-yl-6,7,8,9-tetrahydro[1]benzofuro[3,2-d]pyrimidin-2-amine hydrochloride] stands 7.54; under `CNC1CCN(c2nc(N)nc3c(C)csc23)C1` (stereo in doubt) [Example 12, 7-Methyl-4-[(3R)-3-(methylamino)pyrrolidin-1-yl]thieno[3,2-d]pyrimidin-2-amine], 6.74.
Take `CN[C@@H]1CCN(c2nc(N)nc3c4c(oc23)CCC(C)(C)C4)C1` [Example 137, 8,8-Dimethyl-4-[(3R)-3-(methylamino)pyrrolidin-1-yl]-6,7,8,9-tetrahydro[1]benzofuro[3,2-d]pyrimidin-2-amine hydrochloride]: the pKi was 7.74.
The figure for `CNC1CCN(c2ncnc3c4c(oc23)CCCC4)C1` (stereo in doubt) [Example 28, (3R)-N-Methyl-1-(6,7,8,9-tetrahydro[1]benzofuro[3,2-d]pyrimidin-4-yl)pyrrolidin-3-amine] is 7.18; for `CC(C)N1CCN(c2nc(N)nc3c4c(sc23)CCCC4)CC1` [Example 50, 4-[4-(1-Methylethyl)piper-azin-1-yl]-6,7,8,9-tetrahy-dro[1]benzothieno[3,2-d]pyrimidin-2-amine trifluoroacetic acid salt] it is 6.19; for `CN1C[C@@H]2CN(c3nc(N)nc4c5c(sc34)CCC(F)(F)C5)C[C@@H]2C1` [Example 121, 8,8-Difluoro-4-[(3aR,6aS)-5-methylhexahydropyrrolo[3,4-c]pyrrol-2(1H)-yl]-6,7,8,9-tetrahydro[1]benzothieno[3,2-d]pyrimidin-2-amine (free amine)] it is 6.82.
As to `Nc1nc(N2C[C@H]3CCN[C@H]3C2)c2oc3c(c2n1)CCCC3` [Example 7, 4-[(3aR,6aR)-Hexahydropyrrolo[3,4-b]pyrrol-5(1H)-yl]-6,7,8,9-tetrahydro[1]benzofuro[3,2-d]pyrimidin-2-amine], the pKi is 8.52.
Take `CN[C@H]1CCN(c2nc(N)nc3c4c(sc23)CCC(C)(C)C4)C1` [Example 135, 8,8-Dimethyl-4-[(3S)-3-(methylamino)pyrrolidin-1-yl]-6,7,8,9-tetrahydro[1]benzothieno[3,2-d]pyrimidin-2-amine hydrochloride]: the pKi is 7.46.
In the case of `Nc1nc(N2CC[C@@H](N)C2)c2oc3c(c2n1)CC(F)(F)CC3` [Example 117, 4-[(3R)-3-Aminopyrrolidin-1-yl]-8,8-difluoro-6,7,8,9-tetrahydro[1]benzofuro[3,2-d]pyrimidin-2-amine hydrochloride], the pKi was 8.17.
Under `CN[C@@H]1CCN(c2nc(N)nc3c4c(sc23)CCC(C)(C)C4)C1` [Example 134, 8,8-Dimethyl-4-[(3R)-3-(methylamino)pyrrolidin-1-yl]-6,7,8,9-tetrahydro[1]benzothieno[3,2-d]pyrimidin-2-amine hydrochloride] stands 8.12; under `CN[C@H]1CCN(c2nc(N)nc3c4c(sc23)CCCC4)C1` [Example 55, 4-[(3S)-3-(Methyl-amino)pyrrolidin-1-yl]-6,7,8,9-tetrahydro[1]benzo-thieno[3,2-d]pyrimidin-2-amine trifluoroacetic acid salt], 7.48.
